Legend:
Type in all cases: biochemical
human PRMT7 enzyme = target: T1, human PRMT7 enzyme (Homo sapiens, UniProt Q9NVM4); test: PRMT7 inhibition assay (radioactive [3H]SAM methyl transfer, filter binding); details: 250 nM [3H]SAM, 4 nM Histone H2B (21-41) biotin labelled, 90 min at 22°C; for inhibition at 100 µM: read-out: PRMT7 100µM, percent inhibition of the control enzyme activity; for inhibition at 10 µM: read-out: PRMT7 10µM, percent inhibition of the control enzyme activity
T1 sequence (Q9NVM4 1-692): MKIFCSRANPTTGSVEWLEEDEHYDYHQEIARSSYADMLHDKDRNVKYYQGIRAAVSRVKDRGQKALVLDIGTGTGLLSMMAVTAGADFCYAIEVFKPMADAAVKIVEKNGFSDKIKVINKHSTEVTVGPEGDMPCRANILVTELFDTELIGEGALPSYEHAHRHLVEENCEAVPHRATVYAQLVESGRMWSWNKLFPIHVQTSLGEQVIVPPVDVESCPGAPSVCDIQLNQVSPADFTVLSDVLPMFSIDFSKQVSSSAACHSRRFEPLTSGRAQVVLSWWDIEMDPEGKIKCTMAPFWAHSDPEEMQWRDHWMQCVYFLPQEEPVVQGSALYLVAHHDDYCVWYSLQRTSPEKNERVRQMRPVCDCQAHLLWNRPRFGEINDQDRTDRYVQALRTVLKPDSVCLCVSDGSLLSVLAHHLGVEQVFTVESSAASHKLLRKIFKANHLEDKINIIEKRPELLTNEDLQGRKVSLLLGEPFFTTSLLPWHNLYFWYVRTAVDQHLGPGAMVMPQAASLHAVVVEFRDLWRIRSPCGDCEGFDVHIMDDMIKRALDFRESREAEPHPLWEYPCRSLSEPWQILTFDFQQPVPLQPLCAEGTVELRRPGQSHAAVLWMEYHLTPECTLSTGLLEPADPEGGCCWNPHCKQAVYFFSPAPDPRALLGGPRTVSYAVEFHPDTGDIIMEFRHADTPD
Procedure: (§1) The inhibitory effect of compounds on the methyltransferase activity of human PRMT was evaluated via the measurement of its capacity to transfer methyl groups in a radioactivity assay.
The test compound, reference compound, or water (control) were incubated for 90 min at 22°C with 12.5 ng human PRMT7 enzyme, 250 nM [^3H]SAM and 4 nM Histone H2B (21-41) biotin labelled in a buffer containing 45 mM Tris-HCl (pH 8.7), 0.0045% Tween20, 0.009% HSA and 0.9 mM DTT.
(§2) For control basal measurements, the enzyme is omitted from the reaction mixture. Following incubation, the reaction is stopped by adding 33 mM citric acid and the samples are filtered rapidly under vacuum through glass fiber filters (GF/B, Packard) presoaked with 33 mM citric acid and rinsed several times with ice-cold 33 mM citric acid using a 96-sample cell harvester (Unifilter, Packard). The filters are dried then counted for radioactivity in a scintillation counter (Topcount, Packard) using a scintillation cocktail (Microscint 0, Packard).
The results are expressed as a percent inhibition of the control enzyme activity. The standard reference compound is SAH, which is tested in each experiment at several concentrations to obtain a competition curve from which its IC50 is calculated (Zurita-Lopez et al., 2012, J. Biol. Chem., 287(11):7859).

human PRMT6 enzyme = human PRMT6 enzyme (Homo sapiens, UniProt Q96LA8); test: PRMT6 inhibition assay (radioactive [3H]SAM methyl transfer, filter binding); details: 120 nM [3H]SAM, 25 nM Histone H3 full length, 120 min at 22°C; for inhibition at 10 µM: compound at 10µM, read-out: PRMT6 10µM, percent inhibition of the control enzyme activity; for inhibition at 100 µM: read-out: PRMT6 100µM, percent inhibition of the control enzyme activity
Chain of human PRMT6 enzyme (Q96LA8 whole entry): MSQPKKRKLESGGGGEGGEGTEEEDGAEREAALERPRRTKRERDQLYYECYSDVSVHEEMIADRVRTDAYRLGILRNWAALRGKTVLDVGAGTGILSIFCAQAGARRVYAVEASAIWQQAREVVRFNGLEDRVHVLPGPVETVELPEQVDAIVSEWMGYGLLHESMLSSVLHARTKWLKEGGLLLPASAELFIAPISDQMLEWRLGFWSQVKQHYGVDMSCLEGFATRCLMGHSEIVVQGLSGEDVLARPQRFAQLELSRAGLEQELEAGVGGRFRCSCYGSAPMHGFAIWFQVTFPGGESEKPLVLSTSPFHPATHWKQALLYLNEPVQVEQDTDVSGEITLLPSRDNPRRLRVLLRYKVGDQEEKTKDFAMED
Procedure: as §1
The test compound, reference compound, or water (control) were incubated for 120 min at 22°C with 10 ng human PRMT6 enzyme, 120 nM [^3H]SAM and 25 nM Histone H3 full length in a buffer containing 45 mM Tris-HCl (pH 8), 45 mM NaCl, 4.5 mM MgCl2 and 3.6 mM DTT.
as §2
The results are expressed as a percent inhibition of the control enzyme activity. The standard reference compound is SAH, which is tested in each experiment at several concentrations to obtain a competition curve from which its IC50 is calculated. (lberg et al., 2007, J. Biol. Chem., 283: 3006).

human PRMT4 enzyme = target: T2, human PRMT4 enzyme (Homo sapiens, UniProt Q86X55); test: PRMT4 inhibition assay (radioactive [3H]SAM methyl transfer, filter binding); details: 60 nM [3H]SAM, 25 nM Histone H3 full length, 1 h at 22°C; for IC50: read-out: PRMT4/CARM1 IC50; for inhibition at 100 µM: read-out: PRMT4/CARM1 100µM, percent inhibition of the control enzyme activity; for inhibition at 10 µM: read-out: PRMT4/CARM1 10µM, percent inhibition of the control enzyme activity
T2 sequence (Q86X55 1-608): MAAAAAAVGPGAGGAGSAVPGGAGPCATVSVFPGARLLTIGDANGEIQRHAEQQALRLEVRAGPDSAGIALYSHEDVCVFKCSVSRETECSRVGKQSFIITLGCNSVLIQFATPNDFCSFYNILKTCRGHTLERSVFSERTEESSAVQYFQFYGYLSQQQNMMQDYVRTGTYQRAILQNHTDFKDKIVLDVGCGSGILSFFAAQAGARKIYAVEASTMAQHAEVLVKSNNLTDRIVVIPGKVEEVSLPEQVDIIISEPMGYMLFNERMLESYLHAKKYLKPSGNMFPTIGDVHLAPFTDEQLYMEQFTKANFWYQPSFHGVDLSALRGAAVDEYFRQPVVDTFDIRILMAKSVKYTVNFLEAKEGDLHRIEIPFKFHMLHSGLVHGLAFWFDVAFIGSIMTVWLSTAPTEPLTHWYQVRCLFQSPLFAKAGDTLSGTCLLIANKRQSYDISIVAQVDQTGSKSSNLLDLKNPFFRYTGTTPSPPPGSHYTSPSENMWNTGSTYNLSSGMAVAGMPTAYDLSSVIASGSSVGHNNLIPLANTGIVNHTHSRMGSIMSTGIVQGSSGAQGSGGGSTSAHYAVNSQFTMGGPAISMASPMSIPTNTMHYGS
Procedure: as §1
The test compound, reference compound, or water (control) were incubated for 1 h at 22°C with 2.5 ng human PRMT4 enzyme, 60 nM [^3H]SAM and 25 nM Histone H3 full length in a buffer containing 45 mM Tris-HCl (pH 8), 45 mM NaCl, 4.5 mM MgCl2 and 3.6 mM DTT.
as §2
The results are expressed as a percent inhibition of the control enzyme activity. The standard reference compound is SAH, which is tested in each experiment at several concentrations to obtain a competition curve from which its IC50 is calculated (Selvi et al., 2010, J. Biol. Chem., 285: 7143).

human PRMT1 enzyme = human PRMT1 enzyme (Homo sapiens, UniProt Q99873); test: PRMT1 inhibition assay (radioactive [3H]SAM methyl transfer, filter binding); details: compound at 100µM, 700 nM [3H]SAM, 50 nM Histone H4 full length, 20 min at 22°C; for inhibition at 100 µM: read-out: PRMT1 100µM, percent inhibition of the control enzyme activity
Chain of human PRMT1 enzyme (Q99873 whole entry): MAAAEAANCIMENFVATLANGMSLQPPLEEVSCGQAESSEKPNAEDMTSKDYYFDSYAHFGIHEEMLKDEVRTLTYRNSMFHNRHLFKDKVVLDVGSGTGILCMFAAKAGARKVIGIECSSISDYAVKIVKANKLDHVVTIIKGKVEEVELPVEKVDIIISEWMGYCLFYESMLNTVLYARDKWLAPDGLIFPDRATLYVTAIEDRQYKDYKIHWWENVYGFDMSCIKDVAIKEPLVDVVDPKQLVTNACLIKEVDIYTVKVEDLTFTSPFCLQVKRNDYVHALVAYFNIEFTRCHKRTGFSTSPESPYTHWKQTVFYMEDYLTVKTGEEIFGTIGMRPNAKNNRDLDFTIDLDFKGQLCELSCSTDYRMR
Procedure: as §1
The test compound, reference compound, or water (control) were incubated for 20 min at 22°C with 20 ng human PRMT1 enzyme, 700 nM [^3H]SAM and 50 nM Histone H4 full length in a buffer containing 45 mM Tris-HCl (pH 8), 4.5 mM MgCl2, 45 mM NaCl and 3.6 mM DTT.
as §2
The results are expressed as a percent inhibition of the control enzyme activity. The standard reference compound is SAH, which is tested in each experiment at several concentrations to obtain a competition curve from which its IC50 is calculated (Cheng et al., 2004, J. Biol. Chem. 279:23892).

Molecule | IC50 (human PRMT4 enzyme) [µM] | inhibition at 100 µM (human PRMT7 enzyme; compound at 100µM) [%] | inhibition at 100 µM (human PRMT4 enzyme; compound at 100µM) [%] | inhibition at 10 µM (human PRMT7 enzyme; compound at 10µM) [%] | inhibition at 10 µM (human PRMT6 enzyme) [%] | inhibition at 100 µM (human PRMT6 enzyme; compound at 100µM) [%] | inhibition at 10 µM (human PRMT4 enzyme; compound at 10µM) [%] | inhibition at 100 µM (human PRMT1 enzyme) [%] | further results
1-(methoxymethyl)-5-(N-(5'-deoxyadenosin-5'-yl)aminomethyl)cytosine | 1.9 | – | – | – | – | – | – | – | PRMT7 10µM, percent inhibition of the control enzyme activity (human PRMT7 enzyme; compound at 10µM): 33%; PRMT7 100µM, percent inhibition of the control enzyme activity (human PRMT7 enzyme; compound at 100µM): 89%; PRMT6 100µM, percent inhibition of the control enzyme activity (human PRMT6 enzyme; compound at 100µM): 20%; PRMT4/CARM1 10µM, percent inhibition of the control enzyme activity (human PRMT4 enzyme; compound at 10µM): 81%; PRMT4/CARM1 100µM, percent inhibition of the control enzyme activity (human PRMT4 enzyme; compound at 100µM): 99%; PRMT1 100µM, percent inhibition of the control enzyme activity (human PRMT1 enzyme): 13%
COCn1cc(CNC[C@H]2O[C@@H](n3cnc4c(N)ncnc43)[C@H](O)[C@@H]2O)c(N)nc1=O [Compound A, 1-(methoxymethyl)-5-(N-(5'-deoxyadenosin-5'-yl)aminomethyl)cytosine 5'-deoxy-5'-((1-(methoxymethyl)cytosin-5-yl)methylamino)adenosine] | – | 12 | 21 | – | – | – | – | – | –
COCn1cc(CN(CCC(N)C(=O)O)CC2OC(n3cnc4c(N)ncnc43)C(O)C2O)c(N)nc1=O (centres unmarked) [Compound B] | – | 81 | 59 | 30 | 3 | 61 | 21 | 24 | –
COCn1cc(CN(CCC(N)C(=O)O)CCC2OC(n3cnc4c(N)ncnc43)C(O)C2O)c(N)nc1=O (centres unmarked) [D] | 14 | 83 | 88 | 46 | 8 | 47 | 54 | 42 | –

Further lines, with some results ahead:

IC50 (human PRMT4 enzyme) [µM] | inhibition at 100 µM (human PRMT7 enzyme; compound at 100µM) [%] | inhibition at 100 µM (human PRMT4 enzyme; compound at 100µM) [%] | inhibition at 10 µM (human PRMT7 enzyme; compound at 10µM) [%] | inhibition at 10 µM (human PRMT6 enzyme) [%] | inhibition at 100 µM (human PRMT6 enzyme; compound at 100µM) [%] | inhibition at 10 µM (human PRMT4 enzyme; compound at 10µM) [%] | inhibition at 100 µM (human PRMT1 enzyme) [%] | Molecule | further results
– | – | – | – | – | – | 35 | – | Nc1nc(=O)n(CCOc2ccccc2)cc1CNCCC1OC(n2cnc3c(N)ncnc32)C(O)C1O (centres unmarked) [E, 5'-deoxy-5'-(N-((1-(2-(4-phenoxy)ethyl)-cytosin-5-yl)methyl)-aminomethyl) adenosine] | –
– | – | – | – | – | – | 43 | – | Nc1nc(=O)n(CCOc2ccc(Br)cc2)cc1CNCC[C@H]1O[C@@H](n2cnc3c(N)ncnc32)[C@H](O)[C@@H]1O [F, 5'-deoxy-5'-(N-((1-(2-(4-bromophenoxy)ethyl)-cytosin-5-yl)methyl)-aminomethyl) adenosine] | –

From patent EP3266784A1, “PROTEIN ARGININE N-METHYLTRANSFERASES INHIBITORS AND USES THEREOF” (PIERRE FABRE MEDICAMENT, priority 2016, dated 2018)
